Source: PubChem BioAssay (NCI)
Where “and” joins values, the source holds several entries; their conditions need not be identical. Identical values can stand only once.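 A five-concentration, 48-hour dose response in 96-well plates underlies each endpoint, interpolated linearly between surrounding concentrations. Here, GI50 denotes the concentration required for 50% inhibition of growth. TGI denotes the concentration required for complete inhibition of growth.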 *1 amine or outer side, *2 acyl side, *3 side chain or, on linkers, in order; H or OH if unused. Where a SMILES comes first, the peptide text is derived from it. Bridges are numbered along the chain shown (N, C = ends). Roman numbers before positions name the chains, in order. [ ]: non-standard residue; d: D form. Actinocin(9to1) = Cc1c2oc3c(C)ccc(C(=O)[*:1])c3nc-2c(C(=O)[*:2])c(N)c1=O; NMeT = CN[CH](C(=O)O)[CH](C)O; Sar = CNCC(=O)O

Tests used:
Experiment in all cases: inhibition of tumour cell growth, NCI panel, 48 h
SK-MEL-2 melanoma = tested on: SK-MEL-2 melanoma
K-562 leukemia = tested on: K-562 leukemia
SW-620 colon = tested on: SW-620 colon
SK-MEL-5 melanoma = tested on: SK-MEL-5 melanoma
HCT-15 colon = tested on: HCT-15 colon
A498 renal = tested on: A498 renal
OVCAR-4 ovarian = tested on: OVCAR-4 ovarian
U251 CNS = tested on: U251 CNS
OVCAR-3 ovarian = tested on: OVCAR-3 ovarian
MDA-MB-435 = tested on: MDA-MB-435

Compound	GI50 (SK-MEL-2 melanoma) [µM]	TGI (SK-MEL-2 melanoma)	GI50 (K-562 leukemia) [µM]	TGI (K-562 leukemia) [µM]	GI50 (SW-620 colon) [µM]	TGI (SW-620 colon)	GI50 (SK-MEL-5 melanoma)	TGI (SK-MEL-5 melanoma)	GI50 (HCT-15 colon)	TGI (HCT-15 colon) [µM]	GI50 (A498 renal)	TGI (A498 renal)	GI50 (OVCAR-4 ovarian)	TGI (OVCAR-4 ovarian)	GI50 (U251 CNS) [µM]	TGI (U251 CNS)	GI50 (OVCAR-3 ovarian)	TGI (OVCAR-3 ovarian)	GI50 (MDA-MB-435)	TGI (MDA-MB-435)
CCC(=O)Nc1ccccc1C#C/C=C\C#Cc1ccccc1SC	0.0742	3.83 µM	6.37	> 100	4.62	> 100 µM	3.91 µM	17.4 µM	4.27 µM	> 100	15.1 µM	> 100 µM	30.1 µM	> 100 µM	6.43	> 100 µM	8.87 µM	80.6 µM	1.92 µM	6.17 µM
O=c1ccs[nH]1		61.3 µM		64.6		50.1 µM		46.5 µM		33.8		99.6 µM		32.5 µM		21.4 µM		21.7 µM		31 µM
COc1ccc(-c2cc(-c3ccc(Cl)cc3)nc(SCCCC(=O)NO)n2)cc1	2.42	6.94 µM	1.2	> 100	0.553	3.29 µM	1.59 µM	3.31 µM	0.413 µM	1.7	1.38 µM	3.28 µM	0.849 µM	11.6 µM	0.753	> 22.5 µM	0.406 µM	2.11 µM	1.21 µM	3.19 µM
O=C1NC(=O)C(c2ccccc2Cl)=C1Nc1cc(Cl)c(O)c(Cl)c1	12	> 25 µM	12.3	> 25	9.74	> 25 µM	11.7 µM	> 25 µM	15 µM	> 25	> 25 µM	> 25 µM	13.7 µM	> 25 µM	13.3	> 25 µM	9.7 µM	24.9 µM	8.78 µM	> 25 µM
COc1ccc(NC([Se])=NC23CC4CC(CC(C4)C2)C3)cc1	2.27	7.33 µM	0.542	18.8	1.51	6.45 µM	0.558 µM	1.79 µM	1.57 µM	11.1	1.32 µM	4.75 µM	0.42 µM	3.46 µM	1.27	4.91 µM	1.39 µM	3.21 µM	2.84 µM	19.5 µM
O=C1O/C(=C\c2ccccc2)N(c2ccccc2)C1=O		> 100 µM		> 100		> 100 µM		> 100 µM		> 100		> 100 µM		> 100 µM		> 100 µM		> 100 µM		> 100 µM
COc1cc(-c2ccc(-c3ccc(C(=N)N)nc3)s2)cc(OC)c1OC	2.09	4.35 µM	1.39	4.46	2.09	5.24 µM	1.67 µM	3.08 µM	2.18 µM	6.41	4.9 µM	18.2 µM	2.69 µM	10.4 µM	1.74	3.53 µM	2.6 µM	6.35 µM	1.62 µM	3.05 µM
CS(=O)(=O)CCNCc1ccc(-c2ccc3ncnc(Nc4ccc(OCc5ccccc5)c(Br)c4)c3c2)o1	6.5	13.1 µM	7.72	> 20.6	5.29	11.1 µM	3.44 µM	6.71 µM	4.51 µM	14.7	4.35 µM	16.3 µM	15.5 µM	> 25 µM	7.12	> 23 µM	9.22 µM	> 25 µM	6.09 µM	15.8 µM
Cc1c2oc3c(C)ccc(C(=O)NC4C(=O)NC(C(C)C)C(=O)N5CCCC5C(=O)N(C)CC(=O)N(C)C(C(C)O)C(=O)OC4C)c3nc-2c(C(=O)NC2C(=O)NC(C(C)C)C(=O)N3CCCC3C(=O)N(C)CC(=O)N(C)C(C(C)O)C(=O)OC2C)c(N)c1=O (stereo unspecified) (I: TVP[Sar][NMeT] / II: TVP[Sar][NMeT]; ester I:1-I:C, II:1-II:C; linker I:N-II:N via Actinocin(9to1); configuration not given here)		3.97 µM and > 1 µM		> 36.5		43.4 µM and > 1 µM	0.473 µM and > 1 µM	2.9 µM and > 1 µM	14.1 µM and > 1 µM	> 100	0.327 µM and > 1 µM	2.33 µM and > 1 µM	6.1 µM and > 1 µM	32.4 µM and > 1 µM		7.27 µM and > 1 µM	2.23 µM and > 1 µM	16.6 µM and > 1 µM	2.11 µM and > 1 µM	21 µM and > 1 µM
O=C(O)CCCSc1ccccc1		> 100 µM		> 100		> 100 µM		> 100 µM		> 100		> 100 µM		> 100 µM		> 100 µM		> 100 µM		> 100 µM
CNC/C(Cl)=N/S(=O)(=O)c1ccc(C)cc1		34.4 µM		> 100		> 100 µM		36.7 µM		> 100		54.4 µM		25.4 µM		20.5 µM		25.5 µM		21.5 µM
O=C(O)c1ccc(Oc2nccc(-c3c(-c4ccc(F)cc4)ncn3C3CCNCC3)n2)cc1	> 25	> 25 µM	> 25	> 25	> 25	> 25 µM	> 25 µM	> 25 µM	> 25 µM	> 25	> 25 µM	> 25 µM	> 25 µM	> 25 µM	> 25	> 25 µM	> 25 µM	> 25 µM	> 25 µM	> 25 µM
